In patent US8343956B2, “Process for making a crystalline zilpaterol salt” (Intervet International B.V., priority 2008, dated 2013):
Values joined by “and” are separate entries in the source; they are usually repeats but may differ in a detail not shown here. Identical values can stand only once.

Test: Particle Size Distribution of zilpaterol hydrochloride batches
Format: physicochemical
Details: batches from crystallization process of Examples 4
From the text: As used herein, particle size refers to a number particle size as measured by conventional particle size measuring techniques well known to those skilled in the art, such as laser scattering, sedimentation field flow fractionation, photon correlation spectroscopy, or disk centrifugation.
The particle size measurement indicated as Particle Size Distribution (relative amounts of particles present, sorted according to size) can be e.g. performed with a Malvern Mastersizer 2000 with the Hydro 2000G measuring cell, or with a Horiba LA-910 laser scattering particle size distribution analyzer.

Particle size Distribution <=15 μm (relative amount of crystal particles with size <=15 μm): 2.9% and 1.6% and 3.0%
Particle size Distribution >=200 μm (relative amount of crystal particles with size >=200 μm): 7.8% and 14.3% and 11.0%
Particle size Distribution >=250 μm (relative amount of crystal particles with size >=250 μm): 0.3% and 1.7% and 0.8%
Particle size Distribution >=300 μm (relative amount of crystal particles with size >=300 μm): 0% and 0.2%
Structure (SMILES): CC(C)N[C@@H]1CCn2c(=O)[nH]c3cccc(c32)[C@H]1O (racemic) [Example 3, trans-(±)-4,5,6,7-tetrahydro-7-hydroxy-6-[(1-methylethyl)amino]-imidazo[4,5,1-jk][1]benzazepin-2(1H)-one]
